Assay results reported in patent publication US20260272907A1, “Therapeutic Tyrosine Kinase Inhibitors for Multiple Sclerosis” (Principia Biopharma Inc., priority 2022, published 2026).

Test system: patients with relapsing multiple sclerosis
Assay: Long-term safety extension: number of new Gd-enhancing T1-hyperintense lesions (MRI)
Format: in vivo, human
Details: for Number of new Gd-enhancing lesions, mean±SD: LTS W96
Protocol: In the current open-label extension Part B, all patients receive 60 mg/day. MRI outcomes include numbers of new Gd-enhancing and new/enlarging T2 lesions, T2 lesion volume change from baseline, slowly evolving lesions (SEL), and paramagnetic rim lesions (PRL).
The Week 0 value is from the last MRI obtained in the dose-finding study if performed within 6 weeks prior to Day 1 of the long-term safety study For some patients the Week 0 value began after a gap period ranging from 0-21 weeks. For patients where the gap period was 0 weeks, the Week 0 value began immediately after the completion of Week 16 of the dose-finding study. For patients where the gap period was greater than 6 weeks a new MRI was obtained prior to Day 1 of the long-term safety study.
If from Week 16 of the dose-finding study (Cohort 2), it is also included in Week 12. If from Week 16 of the dose-finding study (Cohort 1), it is after 4 weeks placebo run out.

Q: What does the source list for `C=CC(=O)N1CCC[C@@H](n2c(=O)n(-c3ccc(Oc4ccccc4)cc3)c3c(N)nccc32)C1` [the BTK inhibitor, (R)-1-(1-acryloylpiperidin-3-yl)-4-amino-3-(4-phenoxyphenyl)-1H-imidazo[4,5-c]pyridin-2(3H)-one]?
A: Number of new GD-enhancing T1-Hyperintense lesions, Mean (SD) (5/60 mg, Week 0): 1.13 (2.66); Number of new GD-enhancing T1-Hyperintense lesions, Median (5/60 mg, Week 0): 0.00; Number of new GD-enhancing T1-Hyperintense lesions, Mean (SD) (5/60 mg, Week 12): 1.03 (2.57); Number of new GD-enhancing T1-Hyperintense lesions, Median (5/60 mg, Week 12): 0.00; Number of new Gd-enhancing lesions, mean±SD (5/60-mg arm): 0.85±2.5; Number of new GD-enhancing T1-Hyperintense lesions, Mean (SD) (15/60 mg, Week 0): 1.00 (1.88); Number of new GD-enhancing T1-Hyperintense lesions, Median (15/60 mg, Week 0): 0.00; Number of new GD-enhancing T1-Hyperintense lesions, Mean (SD) (15/60 mg, Week 12): 0.80 (1.49); Number of new GD-enhancing T1-Hyperintense lesions, Median (15/60 mg, Week 12): 0.00; Number of new Gd-enhancing lesions, mean±SD (15/60-mg arm): 0.41±0.91; Number of new GD-enhancing T1-Hyperintense lesions, Mean (SD) (30/60 mg, Week 0): 1.68 (4.29); Number of new GD-enhancing T1-Hyperintense lesions, Median (30/60 mg, Week 0): 0.00; Number of new GD-enhancing T1-Hyperintense lesions, Mean (SD) (30/60 mg, Week 12): 0.78 (3.36); Number of new GD-enhancing T1-Hyperintense lesions, Median (30/60 mg, Week 12): 0.00; Number of new Gd-enhancing lesions, mean±SD (30/60-mg arm): 0.90±2.16; Number of new GD-enhancing T1-Hyperintense lesions, Mean (SD) (60/60 mg, Week 0): 0.35 (0.61); Number of new GD-enhancing T1-Hyperintense lesions, Median (60/60 mg, Week 0): 0.00; Number of new GD-enhancing T1-Hyperintense lesions, Mean (SD) (60/60 mg, Week 12): 0.13 (0.43); Number of new GD-enhancing T1-Hyperintense lesions, Median (60/60 mg, Week 12): 0.00; Number of new Gd-enhancing lesions, mean±SD (60/60-mg arm): 0.31±0.66; Number of new GD-enhancing T1-Hyperintense lesions, Mean (SD) (All (N = 125), Week 0): 1.04 (2.72); Number of new GD-enhancing T1-Hyperintense lesions, Median (All (N = 125), Week 0): 0.00; Number of new GD-enhancing T1-Hyperintense lesions, Mean (SD) (All (N = 125), Week 12): 0.69 (2.27); Number of new GD-enhancing T1-Hyperintense lesions, Median (All (N = 125), Week 12): 0.00
